Molecular target: Substance-P receptor (Homo sapiens, UniProt P25103)
Assay: In vitro binding affinity against human NK1 receptor expressed in CHO cells using [3H]-substance P as radioligand
Type: cell-based

Chain of Substance-P receptor (P25103 whole entry): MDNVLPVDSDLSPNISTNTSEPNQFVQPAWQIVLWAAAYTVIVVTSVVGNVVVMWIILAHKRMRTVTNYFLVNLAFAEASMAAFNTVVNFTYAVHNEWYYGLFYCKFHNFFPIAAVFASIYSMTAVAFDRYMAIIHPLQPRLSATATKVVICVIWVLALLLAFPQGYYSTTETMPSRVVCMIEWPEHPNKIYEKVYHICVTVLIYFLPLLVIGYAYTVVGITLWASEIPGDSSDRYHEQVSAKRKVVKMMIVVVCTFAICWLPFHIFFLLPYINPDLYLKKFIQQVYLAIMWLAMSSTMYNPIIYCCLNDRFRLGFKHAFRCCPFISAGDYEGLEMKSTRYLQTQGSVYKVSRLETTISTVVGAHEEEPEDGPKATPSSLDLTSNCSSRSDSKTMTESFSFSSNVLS

COc1ccc(C(=O)c2ccccc2)cc1CN[C@H]1CCCN[C@H]1c1ccccc1
Ki: 0.398 nM

COc1ccc(C2(C(F)(F)F)N=N2)cc1CN[C@H]1CCCN[C@H]1c1ccccc1
Ki: 0.794 nM
